The assay has as its system CD2F1 mice, L1210 leukemia ip, survival T/C. Briefly: NCI In Vivo Anticancer Drug Screen. Data for tumor model L1210 Leukemia (intraperitoneal) in CD2F1 (CDF1) mice. The settings on record: higher = longer survival. The method in brief:
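Compound-dosed mice with transplantable tumor versus matched vehicle controls; endpoint ratio T/C reported.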

Where [1] appears, read: endpoint: mean survival time, dose: 50.0 mg/kg/injection, schedule: Q01DX009 (ip), vehicle: saline with Tween-80.
[2] abbreviates: endpoint: mean survival time, dose: 100.0 mg/kg/injection, schedule: Q01DX009 (ip), vehicle: saline with Tween-80.
Where [3] appears, read: endpoint: mean survival time, dose: 200.0 mg/kg/injection, schedule: Q01DX009 (ip), vehicle: saline with Tween-80.
Where [4] appears, read: endpoint: mean survival time, dose: 400.0 mg/kg/injection, schedule: Q01DX009 (ip), vehicle: saline with Tween-80.

The source of these data is PubChem BioAssay AID256 (DTP/NCI, 2004).

“And” between values parts separate entries of the source, which are not always exact repeats. Identical values can stand only once. Toxic doses and inconclusive results are not listed.

As to `CCN(CC)Cc1ccc([NH-])c([NH-])c1.CCN(CC)Cc1ccc([NH-])c([NH-])c1.[Cl][Pt+2][Cl].[Cl][Pt+2][Cl].[Cl][Pt+2][Cl]`, the T/C runs as follows: (endpoint: mean survival time, dose: 3.13 mg/kg/injection, schedule: Q04DX003 (ip), vehicle: water) 103 % of control; (endpoint: mean survival time, dose: 6.25 mg/kg/injection, schedule: Q04DX003 (ip), vehicle: water) 108 % of control; (endpoint: mean survival time, dose: 12.5 mg/kg/injection, schedule: Q04DX003 (ip), vehicle: water) 110 % of control; (endpoint: mean survival time, dose: 25.0 mg/kg/injection, schedule: Q04DX003 (ip), vehicle: water) 119 % of control; (endpoint: mean survival time, dose: 50.0 mg/kg/injection, schedule: Q04DX003 (ip), vehicle: water) 89 % of control.
For `CC(=O)OCC1OC(OC(C)=O)C(NC(=O)Nc2cccc(N)c2)C(OC(C)=O)C1OC(C)=O` (stereo not drawn), the T/C reads like this: (endpoint: mean survival time, dose: 5.0 mg/kg/injection, schedule: Q04DX003 (ip), vehicle: water) 102 % of control; (endpoint: mean survival time, dose: 10.0 mg/kg/injection, schedule: Q04DX003 (ip), vehicle: water) 96 % of control; (endpoint: mean survival time, dose: 20.0 mg/kg/injection, schedule: Q04DX003 (ip), vehicle: water) 96 % of control; (endpoint: mean survival time, dose: 40.0 mg/kg/injection, schedule: Q04DX003 (ip), vehicle: water) 96 % of control; (endpoint: mean survival time, dose: 80.0 mg/kg/injection, schedule: Q04DX003 (ip), vehicle: water) 98 % of control.
Regarding `Nc1ncnc2c1c1c(=O)[nH]c(=O)[nH]c1n2C1OC(CO)C(O)C1O` (stereo not drawn), the T/C (endpoint: mean survival time, dose: 12.5 mg/kg/injection, schedule: Q01DX005 (ip), vehicle: distilled water + Tween-80) was 111 % of control; the T/C (endpoint: mean survival time, dose: 25.0 mg/kg/injection, schedule: Q01DX005 (ip), vehicle: distilled water + Tween-80) is 116 % of control; the T/C (endpoint: mean survival time, dose: 50.0 mg/kg/injection, schedule: Q01DX005 (ip), vehicle: distilled water + Tween-80) was 119 % of control; the T/C (endpoint: mean survival time, dose: 100.0 mg/kg/injection, schedule: Q01DX005 (ip), vehicle: distilled water + Tween-80) was 158 % of control; the T/C (endpoint: mean survival time, dose: 200.0 mg/kg/injection, schedule: Q01DX005 (ip), vehicle: distilled water + Tween-80) was 172 % of control; the T/C (endpoint: mean survival time, dose: 400.0 mg/kg/injection, schedule: Q01DX005 (ip), vehicle: distilled water + Tween-80) was 208 % of control. In addition, the T/C is, setting by setting: (endpoint: median survival time, dose: 25.0 mg/kg/injection, schedule: Q01DX009 (ip), vehicle: distilled water + Tween-80) 114 % of control; (endpoint: median survival time, dose: 50.0 mg/kg/injection, schedule: Q01DX009 (ip), vehicle: distilled water + Tween-80) 115 % of control and 109 % of control; (endpoint: median survival time, dose: 100.0 mg/kg/injection, schedule: Q01DX009 (ip), vehicle: distilled water + Tween-80) 121 % of control and 110 % of control; (endpoint: median survival time, dose: 400.0 mg/kg/injection, schedule: Q01DX009 (ip), vehicle: distilled water + Tween-80) 105 % of control.
Consider `COC1CCC([NH-])(C[NH-])C(c2ccc3c(c2)OCO3)O1.[Cl][Pt+2][Cl]` (stereo not drawn), for which the T/C is 103 % of control (endpoint: median survival time, dose: 8.25 mg/kg/injection, schedule: Q04DX003 (ip), vehicle: saline); 105 % of control (endpoint: median survival time, dose: 17.5 mg/kg/injection, schedule: Q04DX003 (ip), vehicle: saline); 110 % of control (endpoint: median survival time, dose: 35.0 mg/kg/injection, schedule: Q04DX003 (ip), vehicle: saline); 108 % of control (endpoint: median survival time, dose: 70.0 mg/kg/injection, schedule: Q04DX003 (ip), vehicle: saline with Tween-80); 106 % of control (endpoint: median survival time, dose: 70.0 mg/kg/injection, schedule: Q04DX003 (ip), vehicle: saline); 113 % of control (endpoint: median survival time, dose: 140.0 mg/kg/injection, schedule: Q04DX003 (ip), vehicle: saline with Tween-80).
In the case of `Nc1nc(N)c2nc(CCSc3ccc(C(=O)NC(CCC(=O)O)C(=O)O)cc3)cnc2n1` (stereo not drawn), the T/C by setting is: (endpoint: mean survival time, dose: 0.38 mg/kg/injection, schedule: Q01DX009 (ip), vehicle: sodium bicarbonate) 96 % of control; (endpoint: mean survival time, dose: 0.75 mg/kg/injection, schedule: Q01DX009 (ip), vehicle: sodium bicarbonate) 100 % of control; (endpoint: mean survival time, dose: 1.5 mg/kg/injection, schedule: Q01DX009 (ip), vehicle: sodium bicarbonate) 104 % of control; (endpoint: mean survival time, dose: 3.0 mg/kg/injection, schedule: Q01DX009 (ip), vehicle: sodium bicarbonate) 95 % of control; (endpoint: mean survival time, dose: 6.0 mg/kg/injection, schedule: Q01DX009 (ip), vehicle: sodium bicarbonate) 91 % of control; (endpoint: mean survival time, dose: 12.0 mg/kg/injection, schedule: Q01DX009 (ip), vehicle: sodium bicarbonate) 93 % of control. Further, the T/C (endpoint: mean survival time, dose: 24.0 mg/kg/injection, schedule: Q01DX009 (ip), vehicle: sodium bicarbonate) is 102 % of control and the T/C (endpoint: mean survival time, dose: 48.0 mg/kg/injection, schedule: Q01DX009 (ip), vehicle: sodium bicarbonate) is 106 % of control.
Take `N#Cc1[nH]nc2ncnc(N)c12`: the T/C reads like this: (endpoint: mean survival time, dose: 6.25 mg/kg/injection, schedule: Q01DX009 (ip), vehicle: saline with Tween-80) 100 % of control; (endpoint: mean survival time, dose: 12.5 mg/kg/injection, schedule: Q01DX009 (ip), vehicle: saline with Tween-80) 100 % of control; (endpoint: mean survival time, dose: 25.0 mg/kg/injection, schedule: Q01DX009 (ip), vehicle: saline with Tween-80) 93 % of control; under setting [1], 91 % of control and 98 % of control.
Turning to `O=C(CNC(=O)Nc1cccc([N+](=O)[O-])c1)N/N=C/c1cccc(O)c1`, the T/C by setting is: under setting [1], 92 % of control; under setting [2], 95 % of control; under setting [3], 95 % of control.
As for `COc1ccccc1OC`, the T/C under setting [2] was 95 % of control, the T/C under setting [3] was 92 % of control and the T/C under setting [4] was 92 % of control.
Consider `CC1CC[N-]CC1.CC1CC[N-]CC1.[Cl][Pt+2][Cl]`, for which the T/C runs as follows: (endpoint: mean survival time, dose: 6.25 mg/kg/injection, schedule: Q01DX001 (ip), vehicle: saline with Tween-80) 101 % of control; (endpoint: mean survival time, dose: 12.5 mg/kg/injection, schedule: Q01DX001 (ip), vehicle: saline with Tween-80) 111 % of control; (endpoint: mean survival time, dose: 25.0 mg/kg/injection, schedule: Q01DX001 (ip), vehicle: saline with Tween-80) 112 % of control.
In the case of `Cc1nc2cc3ccccc3cc2n1C1OC(CO)C(O)C1O` (stereo not drawn), the T/C is, setting by setting: (endpoint: median survival time, dose: 26.5 mg/kg/injection, schedule: Q01DX005 (ip), vehicle: saline with Tween-80) 92 % of control; (endpoint: median survival time, dose: 53.0 mg/kg/injection, schedule: Q01DX005 (ip), vehicle: saline with Tween-80) 103 % of control; (endpoint: median survival time, dose: 106.0 mg/kg/injection, schedule: Q01DX005 (ip), vehicle: saline with Tween-80) 93 % of control; (endpoint: median survival time, dose: 212.0 mg/kg/injection, schedule: Q01DX005 (ip), vehicle: saline with Tween-80) 88 % of control.
With `CCOC(=O)Nc1cc([N+](C)(C)C)ccc1OCCOc1ccc([N+](C)(C)C)cc1`, the T/C is 100 % of control (endpoint: mean survival time, dose: 0.15 mg/kg/injection, schedule: Q04DX003 (ip), vehicle: Klucel (hydroxypropylcellulose) (HPC)); 90 % of control (endpoint: mean survival time, dose: 0.3 mg/kg/injection, schedule: Q04DX003 (ip), vehicle: Klucel (hydroxypropylcellulose) (HPC)); 100 % of control (endpoint: mean survival time, dose: 0.6 mg/kg/injection, schedule: Q04DX003 (ip), vehicle: Klucel (hydroxypropylcellulose) (HPC)).
As to `CC(C)OC(=O)N(C(=O)OC(C)C)c1ccc(Cl)cc1`, the T/C runs as follows: (endpoint: mean survival time, dose: 100.0 mg/kg/injection, schedule: Q04DX002 (ip), vehicle: saline with Tween-80) 97 % of control; (endpoint: mean survival time, dose: 200.0 mg/kg/injection, schedule: Q04DX002 (ip), vehicle: saline with Tween-80) 94 % of control; (endpoint: mean survival time, dose: 400.0 mg/kg/injection, schedule: Q04DX002 (ip), vehicle: saline with Tween-80) 102 % of control.
`COC(OC)C1C2C3C=CC(C4C(=O)OC(=O)C34)C12` (stereo not drawn): the T/C under setting [2] is 98 % of control; the T/C (endpoint: mean survival time, dose: 100.0 mg/kg/injection, schedule: Q04DX003 (ip), vehicle: saline with Tween-80) is 97 % of control; the T/C under setting [3] was 93 % of control; the T/C (endpoint: mean survival time, dose: 200.0 mg/kg/injection, schedule: Q04DX003 (ip), vehicle: saline with Tween-80) was 110 % of control; the T/C under setting [4] was 95 % of control; the T/C (endpoint: mean survival time, dose: 400.0 mg/kg/injection, schedule: Q04DX003 (ip), vehicle: saline with Tween-80) is 103 % of control.
With `O=C1CC2OCCC3=CN4CCC56c7ccccc7N1C5C2C3CC46` (stereo not drawn), the T/C runs as follows: (endpoint: mean survival time, dose: 1.25 mg/kg/injection, schedule: Q01DX001 (ip), vehicle: other) 116 % of control; (endpoint: mean survival time, dose: 2.5 mg/kg/injection, schedule: Q01DX001 (ip), vehicle: other) 108 % of control.
With `COc1ccc2c(c1OC(C)=O)-c1cc(OC(C)=O)cc3c1C(C2)N(C(=O)CCl)CC3` (stereo not drawn), the T/C reads like this: (endpoint: mean survival time, dose: 25.0 mg/kg/injection, schedule: Q04DX003 (ip), vehicle: DMSO) 101 % of control; (endpoint: mean survival time, dose: 50.0 mg/kg/injection, schedule: Q04DX003 (ip), vehicle: DMSO) 96 % of control; (endpoint: mean survival time, dose: 100.0 mg/kg/injection, schedule: Q04DX003 (ip), vehicle: DMSO) 101 % of control.
